Data reported in patent publication US10226463B2, “Fluorouracil glycolate compound for the treatment of warts, molluscum contagiosum” (priority 2012, dated 2019).

Legend:
[1] = systemic absorption after topical application to the lesion; assay type: in vivo; settings: saturation of the lesion
Source text: (§1) Fluorouracil Glycolate is formed by a chemical reaction between fluorouracil and glycolic acid, in an acid-base reaction under the Lowry-Bronsted model in a typical acid-base reaction. The new unique compound when formed is stable at room temperature for approximately one year. The molecular weight of the new compound is 205.72. The magic wart cream formulation, a thick cream resembling peanut butter, has a consistency designed for easy application to the lesions with a toothpick. This is to eliminate any messy, troublesome dribbling as this was a problem encountered early and then overcome on a trial and error basis, resulting in the thicker consistency. By applying the magic wart cream to only the center of the wart, and not to the edges, it focuses the target of the high-sulfur containing, amino acid rich matrix of keratin to where the fluorouracil glycolate can pool. Then it forms a depot within the small socket of the lesion. This dictates the nature of the liberation absorption and distribution the drug delivery system.

[2] = stability of the formed compound at room temperature; assay type: physicochemical
Source text: as §1

Q: With `O=C(O)CO.O=c1[nH]cc(F)c(=O)[nH]1` [Fluorouracil Glycolate] as the molecule, how does the systemic absorption [1] read?
A: without observed systemic absorption

Q: What about the “stable at room temperature (duration)” value [2] of the same molecule?
A: approximately one
